Laboratory results from PMC10398856 (ACS Omega, 2023).
pIC50: −log10 of the molar value.

What was measured:
[1] = tested on: SARS-CoV-2 NIV2020-770 (D614G variant); format: cell-based; settings: read-out: IC50, antiviral effect on SARS-CoV-2 NIV2020-770 (D614G variant)
[2] = tested on: SARS-CoV-2 Delta (B.617.2 variant); assay: microbe, parasite or virus in culture; format: cell-based; settings: Severe acute respiratory syndrome coronavirus 2, read-out: IC50, antiviral effect on SARS-CoV-2 Delta (B.617.2 variant)

| SMILES | pIC50 [1] | pIC50 [2] |
| --- | --- | --- |
| O=c1cc(OCCOc2ccnc(SCc3ccc(F)cc3)n2)c2cc(F)ccc2o1 [5c, 6-Fluoro-4-(2-((2-((4-fluorobenzyl)thio)pyrimidin-4-yl)oxy)ethoxy)-2H-chromen-2-one] | > 5.60 | > 5.00 |
| Cc1cccc(CSc2nccc(OCCCOc3cc(=O)oc4ccccc34)n2)c1 [5f, 4-(3-((2-((3-Methylbenzyl)thio)pyrimidin-4-yl)oxy)propoxy)-2H-chromen-2-one] | > 4.60 | > 5.60 |
| O=c1cc(OCCOc2ccnc(SCc3ccc(F)cc3)n2)c2ccccc2o1 [5a, 4-(2-((2-((4-Fluorobenzyl)thio)pyrimidin-4-yl)oxy)ethoxy)-2H-chromen-2-one] | > 4.30 | > 4.60 |
| Cc1cccc(CSc2nccc(OCCOc3cc(=O)oc4ccc(F)cc34)n2)c1 [5g, 6-Fluoro-4-(2-((2-((3-methylbenzyl)thio)pyrimidin-4-yl)oxy)ethoxy)-2H-chromen-2-one] | > 4.60 | > 5.00 |
| Cc1cccc(CSc2nccc(OCCCOc3cc(=O)oc4ccc(F)cc34)n2)c1 [5h, 6-Fluoro-4-(3-((2-((3-methylbenzyl)thio)pyrimidin-4-yl)oxy)propoxy)-2H-chromen-2-one] | > 5.60 | > 5.00 |
| Cc1cccc(CSc2nccc(OCCOc3cc(=O)oc4ccccc34)n2)c1 [5e, 4-(2-((2-((3-Methylbenzyl)thio)pyrimidin-4-yl)oxy)ethoxy)-2H-chromen-2-one] | > 4.60 | > 5.00 |
| O=c1cc(OCCCOc2ccnc(SCc3ccc(F)cc3)n2)c2ccccc2o1 [5b, 4-(3-((2-((4-Fluorobenzyl)thio)pyrimidin-4-yl)oxy)propoxy)-2H-chromen-2-one] | > 5.00 | > 5.60 |
| O=c1cc(OCCCOc2ccnc(SCc3ccc(F)cc3)n2)c2cc(F)ccc2o1 [5d, 6-Fluoro-4-(3-((2-((4-fluorobenzyl)thio)pyrimidin-4-yl)oxy)propoxy)-2H-chromen-2-one] | > 5.00 | > 5.00 |
| O=c1cc(OCCOc2ccnc(SCc3ccc(Cl)cc3)n2)c2ccccc2o1 [5i, 4-(2-((2-((4-Chlorobenzyl)thio)pyrimidin-4-yl)oxy)ethoxy)-2H-chromen-2-one] | > 5.00 | > 5.60 |
